The record followed here is ChEMBL document CHEMBL4842332, “Eriocitrin Contained in Lemon Peel Ameliorates Disuse Muscle Atrophy by Suppressing the Expression of Atrogin-1 and MuRF-1 in Denervated Mice” (2021).

Active and inactive are the calls of the source. The rule behind the calls is not given here.

For assay [1], the species on record is Mus musculus. Nature of the assay: Effect on PGC1a mRNA expression in denervated C57BL/6NCrSlc mouse by RT-PCR analysis. It is filed as functional.
The species named for assay [2] is Mus musculus. Nature of the assay: Antioxidant activity in denervated C57BL/6NCrSlc mouse assessed as […] in lipid peroxide level in gastrocnemius muscle measured after 30 mins. It is filed as functional, organism-based.
The species entered for assay [3] is Mus musculus. Nature of the assay: Effect of PPARdelta mRNA expression in denervated C57BL/6NCrSlc mouse by RT-PCR analysis. Type of assay: functional, organism-based.
The species named for assay [4] is Mus musculus. The assay is described as follows: Antioxidant activity in denervated C57BL/6NCrSlc mouse assessed as […] in GSSG/GSH ratio in gastrocnemius muscle measured after 30 mins. Type of assay: functional, organism-based.
The species entered for assay [5] is Mus musculus. Nature of the assay: Suppression of denervation-induced gastrocnemius muscle weight loss in C57BL/6NCrSlc mouse. It is filed as functional, organism-based.
Assay [6] is filed under the species Mus musculus. The assay is described as follows: Effect of PPARgamma mRNA expression in denervated C57BL/6NCrSlc mouse by RT-PCR analysis. It is filed as functional, organism-based.
The species named for assay [7] is Mus musculus. The assay is described as follows: Upregulation of SOD1 mRNA expression in denervated C57BL/6NCrSlc mouse by RT-PCR analysis. Type of assay: functional.
Assay [8] is filed under the species Mus musculus. The assay is described as follows: Upregulation of IGF-1 mRNA expression in denervated C57BL/6NCrSlc mouse by RT-PCR analysis. It is filed as functional.
The species entered for assay [9] is Mus musculus. Nature of the assay: Downregulation of FOXO1 mRNA expression in denervated C57BL/6NCrSlc mouse by RT-PCR analysis. Type of assay: functional.
For assay [10], the species on record is Mus musculus. The assay is described as follows: Downregulation of MuRF-1 mRNA expression in denervated C57BL/6NCrSlc mouse by RT-PCR analysis. Type of assay: functional.
The species named for assay [11] is Mus musculus. Nature of the assay: Upregulation of Atrogin-1 mRNA expression in denervated C57BL/6NCrSlc mouse by RT-PCR analysis. It is filed as functional.
The species named for assay [12] is Mus musculus. Nature of the assay: Toxicity in denervated C57BL/6NCrSlc mouse assessed as effect on body weight (reference value: 25.74 g). Type of assay: functional.

As for `C[C@@H]1O[C@@H](OC[C@H]2O[C@@H](Oc3cc(O)c4c(c3)O[C@H](c3ccc(O)c(O)c3)CC4=O)[C@H](O)[C@@H](O)[C@@H]2O)[C@H](O)[C@H](O)[C@H]1O` [ERIOCITRIN], the outcome in assay [1], in assay [3], in [6] and in assay [11] was inactive. Further, the result in [2], in assay [4], in assay [5], in [7], in assay [8] and in [9] was Active. Moreover, the result in assay [10] was Active. In assay [12], the Activity worked out at 25.37 g.
